Measured values reported in paper PMC3486884 (PLoS Pathogens, 2012).
Read-outs that look alike come from different tables or passages of the source.

Assays:
HRV1A [1] = settings: for relative infection: n=2
HRV1A [2] = experiment: microbe, parasite or virus in culture; settings: Human rhinovirus sp.; for activity at 0.03 µM / activity at 0.1 µM / activity at 0.31 µM / activity at 0.93 µM / activity at 2.78 µM / activity at 8.33 µM / activity at 25 µM: M-HeLa, 7 h; for activity at 0.03 µM: read-out: HRV1A infection (dsRNA), 0.03 µM; for activity at 0.1 µM: read-out: HRV1A infection (dsRNA), 0.10 µM; for activity at 0.31 µM: read-out: HRV1A infection (dsRNA), 0.31 µM; for activity at 0.93 µM: read-out: HRV1A infection (dsRNA), 0.93 µM; for activity at 2.78 µM: read-out: HRV1A infection (dsRNA), 2.78 µM; for activity at 8.33 µM: read-out: HRV1A infection (dsRNA), 8.33 µM; for activity at 25 µM: read-out: HRV1A infection (dsRNA), 25.00 µM
CVA21 [3] = settings: n=2
HRV14 [4] = experiment: microbe, parasite or virus in culture; settings: Human rhinovirus sp., HRV14, HeLa, read-out: IC50 (HRV14)
HRV14 [5] = settings: n=2
HRV16 = settings: n=2
[6] = test system: influenza virus (strain A/Puerto Rico/8/34/H1N1 depicted PR8); experiment: microbe, parasite or virus in culture; settings: unidentified influenza virus, A549, read-out: IC50 (PR8)
CVB3 = settings: n=2
HRV2 [7] = settings: n=2
CVB4 = settings: n=2
CVA21 [8] = experiment: microbe, parasite or virus in culture; settings: Coxsackievirus, CVA21, HeLa, read-out: IC50 (CVA21)
HRV2 [9] = experiment: microbe, parasite or virus in culture; settings: Human rhinovirus sp., HRV2, HeLa, read-out: IC50 (HRV2)

COc1ccc(Cl)cc1C(=O)Nc1cc([N+](=O)[O-])ccc1Cl [TVB-1330]
antiviral activity against HRV1A (structure-activity study, in words) (HRV1A [1]): reduced antiviral efficacy | activity at 0.03 µM (HRV1A [2]): 101% | activity at 0.1 µM (HRV1A [2]): 103% | activity at 0.31 µM (HRV1A [2]): 99% | activity at 0.93 µM (HRV1A [2]): 97% | activity at 2.78 µM (HRV1A [2]): 101% | activity at 8.33 µM (HRV1A [2]): 105% | activity at 25 µM (HRV1A [2]): 111%

CCC(=O)Nc1ccc(Cl)c(NC(=O)c2ccccc2OC)c1 [TVB-1327]
antiviral activity against HRV1A (structure-activity study, in words) (HRV1A [1]): reduced antiviral efficacy | activity at 0.03 µM (HRV1A [2]): 118% | activity at 0.1 µM (HRV1A [2]): 118% | activity at 0.31 µM (HRV1A [2]): 110% | activity at 0.93 µM (HRV1A [2]): 107% | activity at 2.78 µM (HRV1A [2]): 96% | activity at 8.33 µM (HRV1A [2]): 107% | activity at 25 µM (HRV1A [2]): 115%

CCOc1ccccc1C(=O)Nc1ccc(Cl)cc1Cl [TVB-1331]
antiviral activity against HRV1A (structure-activity study, in words) (HRV1A [1]): eliminated antiviral activity | activity at 0.03 µM (HRV1A [2]): 119% | activity at 0.1 µM (HRV1A [2]): 118% | activity at 0.31 µM (HRV1A [2]): 112% | activity at 0.93 µM (HRV1A [2]): 107% | activity at 2.78 µM (HRV1A [2]): 108% | activity at 8.33 µM (HRV1A [2]): 106% | activity at 25 µM (HRV1A [2]): 113%

O=C(Nc1ccc([N+](=O)[O-])cc1Cl)c1cc(Cl)ccc1OCCOc1ccccc1 [TVB-1329]
relative infection (CVA21 [3]; 0.1 µM): 0.86 | relative infection (CVA21 [3]; 0.3 µM): 0.97 | relative infection (CVA21 [3]; 0.9 µM): 1.08 | relative infection (CVA21 [3]; 2.8 µM): 1.13 | relative infection (CVA21 [3]; 8.3 µM): 1.29 | relative infection (CVA21 [3]; 25.0 µM): 0.68 | IC50 (HRV14 [4]): 9.3 µM | relative infection (HRV14 [5]; 0.1 µM): 0.86 | relative infection (HRV14 [5]; 0.3 µM): 0.87 | relative infection (HRV14 [5]; 0.9 µM): 0.97 | relative infection (HRV14 [5]; 2.8 µM): 0.86 | relative infection (HRV14 [5]; 8.3 µM): 0.58 | relative infection (HRV14 [5]; 25.0 µM): 0.10 | antiviral activity against HRV1A (structure-activity study, in words) (HRV1A [1]): did not diminish the antiviral efficacy compared to niclosamide | relative infection (HRV1A [1]; 0.1 µM): 1.00 | relative infection (HRV1A [1]; 0.3 µM): 1.04 | relative infection (HRV1A [1]; 0.9 µM): 1.10 | relative infection (HRV1A [1]; 2.8 µM): 1.02 | relative infection (HRV1A [1]; 8.3 µM): 0.59 | relative infection (HRV1A [1]; 25.0 µM): 0.05 | relative infection (HRV16; 0.1 µM): 0.84 | relative infection (HRV16; 0.3 µM): 0.98 | relative infection (HRV16; 0.9 µM): 1.04 | relative infection (HRV16; 2.8 µM): 1.26 | relative infection (HRV16; 8.3 µM): 0.99 | relative infection (HRV16; 25.0 µM): 0.14 | IC50 [6]: 10.3 µM | IC50 (HRV1A [2]; HeLa, read-out: IC50 (HRV1A)): 9.34 µM | activity at 0.03 µM (HRV1A [2]): 112% | activity at 0.1 µM (HRV1A [2]): 112% | activity at 0.31 µM (HRV1A [2]): 119% | activity at 0.93 µM (HRV1A [2]): 123% | activity at 2.78 µM (HRV1A [2]): 111% | activity at 8.33 µM (HRV1A [2]): 47% | activity at 25 µM (HRV1A [2]): 6% | relative infection (CVB3; 0.1 µM): 0.97 | relative infection (CVB3; 0.3 µM): 1.06 | relative infection (CVB3; 0.9 µM): 1.19 | relative infection (CVB3; 2.8 µM): 1.25 | relative infection (CVB3; 8.3 µM): 1.07 | relative infection (CVB3; 25.0 µM): 1.01 | relative infection (HRV2 [7]; 0.1 µM): 1.03 | relative infection (HRV2 [7]; 0.3 µM): 1.10 | relative infection (HRV2 [7]; 0.9 µM): 0.98 | relative infection (HRV2 [7]; 2.8 µM): 0.68 | relative infection (HRV2 [7]; 8.3 µM): 0.36 | relative infection (HRV2 [7]; 25.0 µM): 0.02 | relative infection (CVB4; 0.1 µM): 1.12 | relative infection (CVB4; 0.3 µM): 1.28 | relative infection (CVB4; 0.9 µM): 1.51 | relative infection (CVB4; 2.8 µM): 1.62 | relative infection (CVB4; 8.3 µM): 1.33 | relative infection (CVB4; 25.0 µM): 0.46 | IC50 (CVA21 [8]): ~26.6 µM | IC50 (HRV2 [9]): 5.07 µM

COc1c(C)cccc1C(=O)Nc1ccc([N+](=O)[O-])cc1Cl [TVB-1324]
antiviral activity against HRV1A (structure-activity study, in words) (HRV1A [1]): eliminated antiviral activity | activity at 0.03 µM (HRV1A [2]): 104% | activity at 0.1 µM (HRV1A [2]): 105% | activity at 0.31 µM (HRV1A [2]): 98% | activity at 0.93 µM (HRV1A [2]): 99% | activity at 2.78 µM (HRV1A [2]): 88% | activity at 8.33 µM (HRV1A [2]): 94% | activity at 25 µM (HRV1A [2]): 107%

COC(=O)c1ccc(Cl)c(NC(=O)c2ccccc2OC)c1 [TVB-1325]
antiviral activity against HRV1A (structure-activity study, in words) (HRV1A [1]): reduced antiviral efficacy | activity at 0.03 µM (HRV1A [2]): 91% | activity at 0.1 µM (HRV1A [2]): 97% | activity at 0.31 µM (HRV1A [2]): 86% | activity at 0.93 µM (HRV1A [2]): 95% | activity at 2.78 µM (HRV1A [2]): 83% | activity at 8.33 µM (HRV1A [2]): 73% | activity at 25 µM (HRV1A [2]): 80%

COc1ccccc1C(=O)Nc1ccc([N+](=O)[O-])cc1Cl [TVB-1333]
antiviral activity against HRV1A (structure-activity study, in words) (HRV1A [1]): eliminated antiviral activity | activity at 0.03 µM (HRV1A [2]): 112% | activity at 0.1 µM (HRV1A [2]): 99% | activity at 0.31 µM (HRV1A [2]): 107% | activity at 0.93 µM (HRV1A [2]): 92% | activity at 2.78 µM (HRV1A [2]): 84% | activity at 8.33 µM (HRV1A [2]): 157% | activity at 25 µM (HRV1A [2]): 207%
